Data reported in patent publication US9314485B2, “Use of PI3K M-TOR and AKT inhibitors to induce FOXP3 expression and generate regulatory T cells” (Medical Research Council, priority 2006, dated 2016).

Legend:
S6 ribosomal protein = S6 ribosomal protein phosphorylation (pS6) by intracellular staining/immunoblot; type: cell-based, mouse; conditions: 18 h activated cells; rapamycin 25 nM, Ly294002 10 g/ml as printed; within one hour
Procedure: Mouse strains, cell sorting and culture Animal work was carried out according the Animals (Scientific Procedures) Act, UK. Lymph node (LN) cells were stained, analysed and sorted by flow cytometry as described (Cobb et al 2005 J. Exp. Med. 201: 1367-1373). Intracellular staining for Foxp3 protein was done as advised by the manufacturers (eBiosciences.com). The phosphorylation syatus of S6 ribosomal protein was determined using anti pS6 Ser235/236 (Cellsignaling cat.no. 2211, http://www.cellsignal.com) using the eBioscience Foxp3 staining kit and anti rabbit IgG-FITC or IgG-Cy5 (Jackson Immunoresearch). […] CD4 T cell CFSE profiles were recorded between 48 and 72 hours later.
To monitor the activity of the PI3K/mTOR axis in response to TCR signaling, TCR signal withdrawal and treatment with rapamycin and Ly294002, we analysed the level of phosphorylated S6 ribosomal protein (pS6), the target of p70 S6 kinase, which is directly regulated by mTOR. […]
Mice, Cell Sorting and Culture. […] Lymph node (LN) cells or thymocytes from wild type were stained, analysed and sorted by flow cytometry as described (Thompson et al., 2007 Immunity VoI 26 pp 335-344) from wild type (C57BL/6, BALB/c or C57BL/6×129) mice or from Rag1 deficient H2^b AND TCR transgenic mice. […] CD4 T cell CFSE profiles were recorded between 48 and 72 hours later.

[1] = system: naive CD62LhiCD4+CD25− LN T cells; assay: Foxp3 induction in newly activated naive CD4 T cells (intracellular staining); type: cell-based, mouse; conditions: for number of cell divisions (CFSE): 24-48 hours after addition at 18 hours; for % Foxp3+ cells, activation with anti-TCR only: no costimulation; for % Foxp3+ cells, activation with anti-TCR only / % Foxp3+ cells, activation with anti-TCR + anti-CD28: average of two experiments; for % Foxp3+ cells, activation with anti-TCR + anti-CD28: with costimulation
Procedure: Mouse strains, cell sorting and culture Animal work was carried out according the Animals (Scientific Procedures) Act, UK. Lymph node (LN) cells were stained, analysed and sorted by flow cytometry as described (Cobb et al 2005 J. Exp. Med. 201: 1367-1373). Intracellular staining for Foxp3 protein was done as advised by the manufacturers (eBiosciences.com). The phosphorylation syatus of S6 ribosomal protein was determined using anti pS6 Ser235/236 (Cellsignaling cat.no. 2211, http://www.cellsignal.com) using the eBioscience Foxp3 staining kit and anti rabbit IgG-FITC or IgG-Cy5 (Jackson Immunoresearch). For induction of Foxp3 expression, sorted LN CD4+ CD25− CD62Lhi T cells were cultured at 1-3×10^6/ml with plate bound anti-TCRβ. […] After 18 hours the cells were either left in place for continued TCR stimulation or moved to uncoated wells with the indicated additives. To assess regulatory function, CD4 T cells cultured as indicated were titrated into round bottom wells containing either 1×10^5 CFSE labeled total LN cells or 5×10^4 CFSE labeled CD4^+ CD25^− T cells and 1×10^5 mitomycin-C treated (25 μg/ml, 20 min, 37° C.) T cell depleted splenocytes with the indicated concentrations of anti CD3 (2C11, Pharmingen). CD4 T cell CFSE profiles were recorded between 48 and 72 hours later.
Mice, Cell Sorting and Culture. Animal work was carried out according to the Animals (Scientific Procedures) Act, UK. Lymph node (LN) cells or thymocytes from wild type were stained, analysed and sorted by flow cytometry as described (Thompson et al., 2007 Immunity VoI 26 pp 335-344) from wild type (C57BL/6, BALB/c or C57BL/6×129) mice or from Rag1 deficient H2^b AND TCR transgenic mice. Antigen presenting cells were derived from bone marrow in the presence of GM-CSF and incubated with antigenic peptide. Intracellular staining for Foxp3 protein was done as advised by the manufacturers (eBiosciences.com). The phosphorylation status of S6 ribosomal protein was determined using anti pS6 Ser235/236 (Cell Signaling cat.no. 2211, http://www.cellsignal.com) using the eBioscience Foxp3 staining kit and anti rabbit IgG-FITC or IgG-Cy5 (Jackson ImmunoResearch). […] After 18 hours the cells were either left in place for continued TCR stimulation or moved to uncoated wells with the indicated additives. To assess regulatory function, CD4 T cells cultured as indicated were titrated into round bottom wells containing either 1×10^5 CFSE labeled total LN cells or 5×10^4 CFSE labeled CD4^+CD25^− T cells and 1×10^5 mitomycin-C treated (25 μg/ml, 20 min, 37° C.) T cell depleted splenocytes with the indicated concentrations of anti CD3 (2C11, Pharmingen). CD4 T cell CFSE profiles were recorded between 48 and 72 hours later.

PI4KIIIα = PI4KIIIα (Homo sapiens, UniProt P42356); conditions: unit inferred; read-out: Specificity for PI4KIIIα (IC50 determined in vitro); cited from earlier work
PI3KC2γ = PI3KC2γ (Homo sapiens, UniProt O75747); conditions: unit inferred; read-out: Specificity for PI3KC2γ (IC50 determined in vitro); cited from earlier work
PI5P4KIIβ = biological target: T1, PI5P4KIIβ (Homo sapiens, UniProt P78356); conditions: unit inferred; read-out: Specificity for PI5P4KIIβ (IC50 determined in vitro); cited from earlier work
T1 sequence (P78356 1-416): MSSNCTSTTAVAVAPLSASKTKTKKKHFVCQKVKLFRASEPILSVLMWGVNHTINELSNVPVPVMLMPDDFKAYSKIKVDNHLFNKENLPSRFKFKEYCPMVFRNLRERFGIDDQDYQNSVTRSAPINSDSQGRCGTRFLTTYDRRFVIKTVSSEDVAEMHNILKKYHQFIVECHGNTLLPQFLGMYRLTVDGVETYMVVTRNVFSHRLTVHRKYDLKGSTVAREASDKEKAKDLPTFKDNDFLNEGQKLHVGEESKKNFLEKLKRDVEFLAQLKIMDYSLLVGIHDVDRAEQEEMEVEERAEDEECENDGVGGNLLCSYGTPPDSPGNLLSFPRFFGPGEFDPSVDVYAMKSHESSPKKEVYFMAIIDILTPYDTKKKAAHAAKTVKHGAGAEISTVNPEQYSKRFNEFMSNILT

PI4P5KIα [2] = biological target: PI4P5KIα (Homo sapiens, UniProt Q99755); conditions: first PI4P5KIα line; unit inferred; read-out: Specificity for PI4P5KIα (IC50 determined in vitro); cited from earlier work
Chain of PI4P5KIα (Homo sapiens, UniProt Q99755) (Q99755 whole entry): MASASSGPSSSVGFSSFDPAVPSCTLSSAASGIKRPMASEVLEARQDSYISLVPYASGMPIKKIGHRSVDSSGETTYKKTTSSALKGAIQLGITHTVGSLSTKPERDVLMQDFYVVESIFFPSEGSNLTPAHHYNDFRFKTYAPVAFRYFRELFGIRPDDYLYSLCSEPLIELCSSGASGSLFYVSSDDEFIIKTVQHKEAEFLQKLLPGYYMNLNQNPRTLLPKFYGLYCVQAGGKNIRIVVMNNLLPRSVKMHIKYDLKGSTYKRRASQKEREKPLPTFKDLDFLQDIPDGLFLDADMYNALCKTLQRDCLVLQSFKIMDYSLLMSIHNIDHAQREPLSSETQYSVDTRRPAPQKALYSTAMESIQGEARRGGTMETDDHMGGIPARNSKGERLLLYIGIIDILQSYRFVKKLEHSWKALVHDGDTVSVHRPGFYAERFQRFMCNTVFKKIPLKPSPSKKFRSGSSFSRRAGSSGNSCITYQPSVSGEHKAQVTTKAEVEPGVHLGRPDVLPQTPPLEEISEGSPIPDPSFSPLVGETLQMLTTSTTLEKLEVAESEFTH

hsVPS34 = hsVPS34 (Homo sapiens, UniProt Q8NEB9); conditions: unit inferred; read-out: Specificity for hsVPS34 (IC50 determined in vitro); cited from earlier work
PI4KIIIβ = PI4KIIIβ (Homo sapiens, UniProt Q9UBF8); conditions: unit inferred; read-out: Specificity for PI4KIIIβ (IC50 determined in vitro); cited from earlier work
Chain of PI4KIIIβ (Q9UBF8 whole entry): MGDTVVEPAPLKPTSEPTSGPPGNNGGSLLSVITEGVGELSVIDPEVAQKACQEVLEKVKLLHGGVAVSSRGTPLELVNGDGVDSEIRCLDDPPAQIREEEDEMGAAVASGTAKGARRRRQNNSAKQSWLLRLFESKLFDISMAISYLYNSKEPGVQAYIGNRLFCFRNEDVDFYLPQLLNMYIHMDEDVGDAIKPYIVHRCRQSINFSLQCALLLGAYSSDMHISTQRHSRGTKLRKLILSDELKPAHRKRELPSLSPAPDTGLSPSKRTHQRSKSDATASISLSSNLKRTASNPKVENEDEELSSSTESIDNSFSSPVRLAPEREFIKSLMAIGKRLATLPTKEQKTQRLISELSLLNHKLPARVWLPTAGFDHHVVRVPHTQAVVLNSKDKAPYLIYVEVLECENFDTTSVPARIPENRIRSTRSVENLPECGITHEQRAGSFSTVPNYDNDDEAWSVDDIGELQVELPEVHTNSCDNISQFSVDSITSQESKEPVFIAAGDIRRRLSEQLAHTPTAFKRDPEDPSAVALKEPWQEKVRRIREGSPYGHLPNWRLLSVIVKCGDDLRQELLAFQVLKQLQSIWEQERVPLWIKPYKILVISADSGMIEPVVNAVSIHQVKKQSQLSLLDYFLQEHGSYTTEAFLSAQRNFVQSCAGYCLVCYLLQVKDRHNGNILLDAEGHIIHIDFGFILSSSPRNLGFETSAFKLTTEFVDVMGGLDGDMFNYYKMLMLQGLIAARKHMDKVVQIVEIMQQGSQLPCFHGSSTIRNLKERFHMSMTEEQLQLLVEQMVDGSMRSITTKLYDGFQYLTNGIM

PI4P5KIα [3] = conditions: second PI4P5KIα line; unit inferred; read-out: Specificity for PI4P5KIα (IC50 determined in vitro); cited from earlier work
PI3KC2α = PI3KC2α (Homo sapiens, UniProt O00443); conditions: unit inferred; read-out: Specificity for PI3KC2α (IC50 determined in vitro); cited from earlier work
ATR = ATR (Homo sapiens, UniProt Q13535); conditions: unit inferred; read-out: Specificity for ATR (IC50 determined in vitro); cited from earlier work
PI4KIIα = PI4KIIα (Homo sapiens, UniProt Q9BTU6); conditions: unit inferred; read-out: Specificity for PI4KIIα (IC50 determined in vitro); cited from earlier work
Chain of PI4KIIα (Q9BTU6 whole entry): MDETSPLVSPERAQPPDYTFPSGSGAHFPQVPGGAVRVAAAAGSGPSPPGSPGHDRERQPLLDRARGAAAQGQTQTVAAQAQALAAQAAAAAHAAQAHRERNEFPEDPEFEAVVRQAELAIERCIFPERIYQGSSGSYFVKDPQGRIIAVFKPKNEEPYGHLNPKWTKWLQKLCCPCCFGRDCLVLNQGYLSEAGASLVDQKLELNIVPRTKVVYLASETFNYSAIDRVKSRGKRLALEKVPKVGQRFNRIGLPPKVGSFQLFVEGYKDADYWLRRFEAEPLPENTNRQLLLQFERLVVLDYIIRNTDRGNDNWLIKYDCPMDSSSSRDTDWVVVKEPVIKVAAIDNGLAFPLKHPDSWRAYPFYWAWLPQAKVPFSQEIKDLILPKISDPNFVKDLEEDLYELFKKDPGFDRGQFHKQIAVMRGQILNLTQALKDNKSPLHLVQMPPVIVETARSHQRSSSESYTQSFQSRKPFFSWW

PI3KC2β = PI3KC2β (Homo sapiens, UniProt O00750); conditions: unit inferred; read-out: Specificity for PI3KC2β (IC50 determined in vitro); cited from earlier work
DNA-PK = DNA-PK (Homo sapiens, UniProt P78527); conditions: unit inferred; read-out: Specificity for DNA-PK (IC50 determined in vitro); cited from earlier work
ATM = ATM (Homo sapiens, UniProt Q13315); conditions: unit inferred; read-out: Specificity for ATM (IC50 determined in vitro); cited from earlier work
Chain of ATM (Q13315 whole entry, species assumed): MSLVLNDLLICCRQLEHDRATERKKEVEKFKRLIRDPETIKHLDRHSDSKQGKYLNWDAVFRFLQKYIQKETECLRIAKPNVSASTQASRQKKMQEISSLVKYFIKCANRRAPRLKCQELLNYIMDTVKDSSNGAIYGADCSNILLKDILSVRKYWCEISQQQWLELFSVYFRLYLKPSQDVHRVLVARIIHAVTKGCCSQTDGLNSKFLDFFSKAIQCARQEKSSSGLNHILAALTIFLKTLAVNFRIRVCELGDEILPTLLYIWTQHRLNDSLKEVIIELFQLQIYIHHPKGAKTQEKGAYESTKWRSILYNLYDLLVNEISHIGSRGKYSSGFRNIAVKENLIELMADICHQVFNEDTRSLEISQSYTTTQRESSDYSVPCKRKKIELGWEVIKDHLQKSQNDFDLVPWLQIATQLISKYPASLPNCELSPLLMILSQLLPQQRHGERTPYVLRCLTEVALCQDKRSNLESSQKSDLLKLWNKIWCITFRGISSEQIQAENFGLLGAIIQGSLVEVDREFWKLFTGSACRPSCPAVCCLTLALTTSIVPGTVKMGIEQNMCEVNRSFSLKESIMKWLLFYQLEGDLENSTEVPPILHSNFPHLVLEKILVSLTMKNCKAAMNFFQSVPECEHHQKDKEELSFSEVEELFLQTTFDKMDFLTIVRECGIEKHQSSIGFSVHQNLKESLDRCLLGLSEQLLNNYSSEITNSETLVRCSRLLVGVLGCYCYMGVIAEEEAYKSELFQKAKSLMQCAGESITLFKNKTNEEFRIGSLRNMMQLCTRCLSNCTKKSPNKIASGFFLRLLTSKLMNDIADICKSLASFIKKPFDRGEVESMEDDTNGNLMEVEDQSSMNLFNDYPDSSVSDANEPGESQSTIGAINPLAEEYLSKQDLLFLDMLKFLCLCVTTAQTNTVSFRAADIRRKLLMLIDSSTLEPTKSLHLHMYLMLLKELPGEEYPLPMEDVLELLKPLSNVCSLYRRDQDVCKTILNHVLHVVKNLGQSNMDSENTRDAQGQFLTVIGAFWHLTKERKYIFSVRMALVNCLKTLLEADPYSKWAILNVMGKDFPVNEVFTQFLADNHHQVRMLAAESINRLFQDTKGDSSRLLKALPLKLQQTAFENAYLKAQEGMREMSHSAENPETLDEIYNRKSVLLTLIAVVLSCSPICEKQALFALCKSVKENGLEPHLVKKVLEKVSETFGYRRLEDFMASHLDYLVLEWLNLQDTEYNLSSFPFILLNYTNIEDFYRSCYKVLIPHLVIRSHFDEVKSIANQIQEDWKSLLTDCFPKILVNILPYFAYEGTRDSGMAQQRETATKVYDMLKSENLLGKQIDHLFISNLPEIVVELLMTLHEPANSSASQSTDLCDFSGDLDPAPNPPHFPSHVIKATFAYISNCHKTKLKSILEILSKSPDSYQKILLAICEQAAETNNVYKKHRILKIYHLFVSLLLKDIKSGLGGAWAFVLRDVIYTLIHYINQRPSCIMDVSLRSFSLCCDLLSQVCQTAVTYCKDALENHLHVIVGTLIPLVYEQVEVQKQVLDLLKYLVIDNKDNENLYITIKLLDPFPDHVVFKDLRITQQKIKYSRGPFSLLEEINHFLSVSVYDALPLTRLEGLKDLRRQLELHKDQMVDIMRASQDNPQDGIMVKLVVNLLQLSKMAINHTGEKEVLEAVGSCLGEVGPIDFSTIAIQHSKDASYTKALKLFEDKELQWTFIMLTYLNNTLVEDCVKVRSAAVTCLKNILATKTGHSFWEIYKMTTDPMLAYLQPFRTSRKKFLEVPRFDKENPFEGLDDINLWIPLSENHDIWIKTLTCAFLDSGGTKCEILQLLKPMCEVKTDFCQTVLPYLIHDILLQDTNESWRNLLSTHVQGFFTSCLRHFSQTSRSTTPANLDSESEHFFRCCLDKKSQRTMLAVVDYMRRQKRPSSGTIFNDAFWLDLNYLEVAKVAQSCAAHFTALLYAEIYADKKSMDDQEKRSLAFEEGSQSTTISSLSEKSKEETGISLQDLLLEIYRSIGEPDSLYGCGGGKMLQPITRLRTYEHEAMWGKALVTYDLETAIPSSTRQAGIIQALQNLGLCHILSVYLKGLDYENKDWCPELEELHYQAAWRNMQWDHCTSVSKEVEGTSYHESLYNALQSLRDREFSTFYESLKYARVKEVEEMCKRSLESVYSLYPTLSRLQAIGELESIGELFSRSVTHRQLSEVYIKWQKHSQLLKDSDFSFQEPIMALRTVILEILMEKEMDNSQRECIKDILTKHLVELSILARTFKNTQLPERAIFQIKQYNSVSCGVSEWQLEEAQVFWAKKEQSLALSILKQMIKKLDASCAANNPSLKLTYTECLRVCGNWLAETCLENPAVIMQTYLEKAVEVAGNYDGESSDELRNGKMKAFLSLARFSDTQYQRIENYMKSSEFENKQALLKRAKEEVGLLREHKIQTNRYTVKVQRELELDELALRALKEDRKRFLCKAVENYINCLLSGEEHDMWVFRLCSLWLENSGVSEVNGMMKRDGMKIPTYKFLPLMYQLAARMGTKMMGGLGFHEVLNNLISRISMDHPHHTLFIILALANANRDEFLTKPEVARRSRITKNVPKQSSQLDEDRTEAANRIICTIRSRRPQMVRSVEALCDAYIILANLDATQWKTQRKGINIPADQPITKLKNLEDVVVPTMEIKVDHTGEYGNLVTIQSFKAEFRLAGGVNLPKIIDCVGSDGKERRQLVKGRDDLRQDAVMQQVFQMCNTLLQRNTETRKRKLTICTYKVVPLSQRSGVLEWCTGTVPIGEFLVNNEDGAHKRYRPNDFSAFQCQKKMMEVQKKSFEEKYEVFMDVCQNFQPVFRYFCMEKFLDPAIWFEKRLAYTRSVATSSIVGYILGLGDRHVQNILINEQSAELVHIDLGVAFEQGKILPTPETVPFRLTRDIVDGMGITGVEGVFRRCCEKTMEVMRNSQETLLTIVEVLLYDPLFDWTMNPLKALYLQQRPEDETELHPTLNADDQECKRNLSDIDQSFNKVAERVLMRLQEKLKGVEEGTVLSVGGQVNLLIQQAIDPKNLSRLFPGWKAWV

mTORC1 = mTORC1 (Homo sapiens, UniProt P42345); conditions: unit inferred; read-out: Specificity for mTORC1 (IC50 determined in vitro); cited from earlier work
mTORC2 = mTORC2 (Homo sapiens, UniProt P42345); conditions: unit inferred; read-out: Specificity for mTORC2 (IC50 determined in vitro); cited from earlier work

For `O=c1cc(N2CCOCC2)oc2c(-c3ccccc3)cccc12` [Ly294002, 2-(4-Morpholinyl)-8-phenyl-4H-1-benzopyran-4-one], the “S6 phosphorylation (pS6)” value (S6 ribosomal protein) was “completely removed”, the “number of cell divisions (CFSE)” value [1] was “slight reduction” and the “number of cell divisions (CFSE)” value ([1]; listed as LY294002) was “slightly reduced”. The “percentage of cells expressing Foxp3” value ([1]; added 18 hours after activation with TCR signal deprivation, read within 24-48 hours) was 26.9±11.4%, the “% Foxp3+ cells, activation with anti-TCR only” value [1] was 4% and the “% Foxp3+ cells, activation with anti-TCR only” value ([1]; listed as LY294002) was 4% Foxp3^+. For the same compound, the “Foxp3 expression in control cultures, TCR signal deprived cultures subtracted” value ([1]; serum free AIM-V medium, without anti TGFβ and SB431542, 24-48 hours / 2 days) was 21.5±4.0%, the “% Foxp3+ cells, activation with anti-TCR + anti-CD28” value [1] was 44% and the “% Foxp3+ cells, activation with anti-TCR + anti-CD28” value ([1]; listed as LY294002) was 44% Foxp3^+.

In the case of `Cc1ccccc1-n1c(Cn2cnc3c(N)ncnc32)nc2cccc(C)c2c1=O` [IC87114], the IC50 (PI4KIIIα) is given as > 100 µM, the IC50 (PI3KC2γ) is given as > 100 µM and the IC50 (PI5P4KIIβ) is given as > 100 µM. The IC50 (PI4P5KIα [2]) was > 100 µM, the IC50 (hsVPS34) was > 100 µM and the IC50 (PI4KIIIβ) was > 100 µM. For the same compound, the IC50 (PI4P5KIα [3]) was > 100 µM, the IC50 (PI3KC2α) was > 100 µM and the IC50 (ATR) was > 100 µM. For the same compound, the IC50 (PI4KIIα) was > 100 µM, the “Foxp3 induction at 1 μM” value ([1]; 1 μM) was 15% and the “increase in Foxp3 expressing cells over and above TCR deprivation alone” value ([1]; IC-87114 down to 0.01 μM) was 10-15%. The IC50 (PI3KC2β) was > 100 µM, the IC50 (DNA-PK) was > 100 µM and the IC50 (ATM) was > 100 µM. For the same compound, the IC50 (mTORC1) was > 100 µM and the IC50 (mTORC2) was > 100 µM.
